Reference: ChEMBL document CHEMBL4392847, “Inhibition of pre-miRNA-136 processing by Dicer with small molecule BzDANP suggested the formation of ternary complex of pre-miR-136-BzDANP-Dicer” (Bioorg Med Chem, 2019)
One block for each molecule: values may come before it. Calls of active or inactive are those of the source. No cut-off for these calls is given here.

Assays:
[1] = test system: pre-microRNA 136; assay: Binding affinity to pre-miR-136 RNA (unknown origin) at 63 nM by SPR assay; type: nucleic-acid assay
[2] = Binding affinity to pre-miR-136 RNA delta-internal loop mutant (unknown origin) at 0.063 to 1 uM by SPR assay
[3] = test system: pre-microRNA 136; assay: Binding affinity to internal loop site of pre-miR-136 RNA (unknown origin) at RNA to compound molar ratio of 1:0 by NMR titration assay; type: nucleic-acid assay
[4] = test system: pre-microRNA 136; assay: Binding affinity to pre-miR-136 RNA (unknown origin) assessed as reduction in Km(app) for human recombinant Dicer-mediated substrate cleavage at 100 uM incubated for 30 mins using 32P-labeled RNA by denaturing polyacrylamide gel electrophoresis method; type: nucleic-acid assay
[5] = test system: pre-microRNA 136; assay: Binding affinity to hairpin loop site of pre-miR-136 RNA (unknown origin) at RNA to compound molar ratio of 1:0 by NMR titration assay; type: nucleic-acid assay
[6] = Binding affinity to pre-miR-136 RNA delta-C-bulge mutant (unknown origin) at 0.063 to 1 uM by SPR assay
[7] = test system: pre-microRNA 136; assay: Binding affinity to pre-miR-136 RNA (unknown origin) assessed as reduction in human recombinant Dicer-mediated substrate cleavage incubated for 30 mins using 32P-labeled RNA by denaturing polyacrylamide gel electrophoresis method; type: nucleic-acid assay
[8] = test system: pre-microRNA 136; assay: Binding affinity to pre-miR-136 RNA (unknown origin) assessed as normalized equilibrium binding response (Req) value at 1 uM by SPR assay relative to control; type: nucleic-acid assay
[9] = (§1) Binding affinity to pre-miR-136 RNA hairpin mutant (unknown origin) assessed as reduction in human recombinant Dicer-mediated substrate cleavage by measuring cleavage efficiency at 200 uM incubated for 30 mins using 32P-labeled RNA by denaturing polyacrylamide gel electrophoresis method (reference value: 59.1 +/- 2.4%); design: scale not given: the % may be the effect or the level left
[10] = Binding affinity to pre-miR-136 RNA hairpin mutant (unknown origin) at <0.5 uM by SPR assay
[11] = molecular target: pre-microRNA 136; assay: Binding affinity to pre-miR-136 RNA (unknown origin) at 0.063 to 1 uM by SPR assay; type: nucleic-acid assay
[12] = as §1, with “delta-C-bulge” for “hairpin”, “89.1” for “59.1”, “2.3%)” for “2.4%)”; design: scale not given: the % may be the effect or the level left
[13] = test system: pre-microRNA 136; assay: Binding affinity to pre-miR-136 RNA (unknown origin) assessed as reduction in Vmax(app) for human recombinant Dicer-mediated substrate cleavage at 100 uM incubated for 30 mins using 32P-labeled RNA by denaturing polyacrylamide gel electrophoresis method; type: nucleic-acid assay
[14] = test system: pre-microRNA 136; assay: as §1, with “RNA” for “RNA hairpin mutant”, “94.3” for “59.1”, “2.3%)” for “2.4%)”; type: nucleic-acid assay; design: scale not given: the % may be the effect or the level left
[15] = Binding affinity to pre-miR-136 RNA hairpin mutant (unknown origin) at 0.063 to 1 uM by SPR assay
[16] = test system: pre-microRNA 136; assay: Binding affinity to pre-miR-136 RNA (unknown origin) assessed as reduction in initial velocity of human recombinant Dicer-mediated substrate cleavage at 100 uM incubated for 30 mins using 32P-labeled RNA by denaturing polyacrylamide gel electrophoresis method; type: nucleic-acid assay
[17] = Binding affinity to pre-miR-136 RNA delta-C-bulge mutant (unknown origin) at <0.5 uM by SPR assay
[18] = Binding affinity to pre-miR-136 RNA delta-C-bulge mutant (unknown origin) assessed as normalized equilibrium binding response (Req) value at 1 uM by SPR assay relative to control
[19] = as §1, with “delta-internal loop” for “hairpin”, “94.5” for “59.1”, “1.4%)” for “2.4%)”; design: scale not given: the % may be the effect or the level left
[20] = Binding affinity to pre-miR-136 RNA delta-internal loop mutant (unknown origin) assessed as normalized equilibrium binding response (Req) value at 1 uM by SPR assay relative to control
[21] = test system: pre-microRNA 136; assay: Binding affinity to C-bulge site of pre-miR-136 RNA (unknown origin) at RNA to compound molar ratio of 1:0 by NMR titration assay; type: nucleic-acid assay

Activity [1]: Active | Kd ([2]; read-out: Kd): 0.00045 mM | Activity [3]: inactive | Km [4]: 0.0279 µM | Activity [5]: inactive | Kd ([6]; read-out: Kd): 3.2 mM | Activity [7]: Dose-dependent effect | Activity [8]: 4.32 RU | Activity [9]: 58.2% | Activity [10]: inactive | Kd ([11]; read-out: Kd): 0.00047 mM | Activity [12]: 80.5% | Vmax(app) [13]: 0.38 nM/min | Activity [14]: 71.9% | Kd ([15]; read-out: Kd): 65 mM | Activity [16]: Active | Activity [17]: inactive | Activity [18]: 1.73 RU | Activity [19]: 80.6% | Activity [20]: 4.73 RU | Activity [21]: Active
Structure (SMILES): NCCCNc1ccc2c(n1)nc(NCCCN)c1ccccc12

Kd [2]: Not Active | Kd [6]: Not Active | Kd [11]: Not Active | Kd [15]: Not Active
Structure (SMILES): Nc1ccc2ccc(N)nc2n1
